Entries after “also recorded” stand apart in the source; their conditions may differ. Read-outs that look alike come from different tables or passages of the source.
What was measured:
[1] = Deacylation control test in resuspension buffer instead of enzyme solution; assay type: in vitro ADME; settings: resuspension buffer instead of the enzyme solution
Method: (§1) One ml of the above mentioned enzyme solution was diluted with 11 ml of a resuspension buffer. To an aliquot (300 μl) of this enzyme solution was added 3 μl of a 1.0×10^-3 M test compound solution in dimethyl sulfoxide. The mixture was incubated at 37° C. for an indicated time, then the reaction was ceased by the addition of 1 ml of acetonitrile. Twenty μl of the above mixture was subjected to reverse phase high-performance liquid chromatography equipped with a C-18 column to quantify the amount of deacylated products. As a control, a test using 300 μl of the resuspension buffer solution mentioned above instead of the enzyme solution was also performed.

[2] = Deacylation by esterases present in the enzyme solution prepared from rat platelets; assay type: in vitro ADME; settings: platelet enzyme solution, 37° C., read-out: conversion (%) from Formula 34b or Formula 35b to Formula 32b; for metabolised at 0.5 h, 10 µM: Reaction time 30 min.; for metabolised at 1 h, 10 µM: Reaction time 60 min.
Method: The test was performed to examine whether or not deacylated compounds would be formed due to esterases present in the enzyme solution when the compounds in the third embodiment according to the present invention were treated with the same enzyme solution as in Test Example 4.
The enzyme solution was prepared according to the same procedure as described in Test Example 4.
as §1
Conditions of reverse phase high-performance liquid chromatography:
Column: Superspher RP-18(e) (purchased from Merck), 4.0 mm in diameter, 125 mm in length
Flow velocity: 1.0 ml/minute
Eluent: Acetonitrile containing 50 mM NaClO4 and 50 mM orthophosphate-water (55: 45)
Column temperature: 30° C.
Calibration: Absorbance of 280 nm

12-lipoxygenase [3] = target: T1, 12-lipoxygenase (Rattus norvegicus, UniProt F1LQ70); test: 12-lipoxygenase inhibition assay (rat platelet enzyme solution); assay type: biochemical, Sprague Dawley male rat
T1 construct: The pelleted platelets were rinsed twice with a washing buffer; from tissue; host or cells: platelets of Sprague Dawley male rat (sonicate, 100,000 x g supernatant)
T1 sequence (F1LQ70 1-663): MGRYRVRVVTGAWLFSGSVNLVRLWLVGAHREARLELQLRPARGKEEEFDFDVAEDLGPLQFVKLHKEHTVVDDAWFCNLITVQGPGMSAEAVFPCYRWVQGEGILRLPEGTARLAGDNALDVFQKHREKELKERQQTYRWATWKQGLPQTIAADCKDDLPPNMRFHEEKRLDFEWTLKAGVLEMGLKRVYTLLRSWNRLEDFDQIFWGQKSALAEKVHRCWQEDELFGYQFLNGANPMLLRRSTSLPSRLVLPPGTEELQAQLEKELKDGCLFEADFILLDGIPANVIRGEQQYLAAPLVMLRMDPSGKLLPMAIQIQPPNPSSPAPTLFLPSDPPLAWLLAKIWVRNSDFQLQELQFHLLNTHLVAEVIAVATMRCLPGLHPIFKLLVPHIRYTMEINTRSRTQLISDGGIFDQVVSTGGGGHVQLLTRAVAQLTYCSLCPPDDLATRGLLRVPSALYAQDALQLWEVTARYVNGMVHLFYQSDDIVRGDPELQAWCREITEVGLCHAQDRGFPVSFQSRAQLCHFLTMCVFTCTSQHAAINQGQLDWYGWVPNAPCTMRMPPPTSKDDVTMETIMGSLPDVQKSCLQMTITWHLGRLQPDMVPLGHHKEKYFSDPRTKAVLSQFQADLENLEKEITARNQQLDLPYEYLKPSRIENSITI
Method: The test was performed to examine inhibitory effect of various compounds on the 12-lipoxyganase activity.
1) Preparation of Enzyme Solution
A Sprague Dawley male rat was anesthetized with ether and bled from abdominal aorta using a syringe filled with about one-tenth volume of 3.8% sodium citrate. Blood was centrifuged at 180×g for 15 minutes at room temperature to pellet sanguineous platelet blood plasma. The resultant supernatant was again centrifuged at 1800×g for 10 minutes at 4° C. The pelleted platelets were rinsed twice with a washing buffer (50 mM Tris-hydrochloric acid buffer containing 154 mM sodium chloride and 2 mM EDTA, pH: 7.4). The platelets were then suspended in one-twentieth volume of a resuspension buffer (50 mM Tris-hydrochloric acid buffer containing 154 mM sodium chloride and 5.5 mM glucose, pH: 7.4). The platelets were then sonicated at 4° C. and centrifuged at 100,000×g for 30 minutes to obtain a supernatant as a 12-lipoxgenaseenzyme solution.
2) Procedure for 12-lipoxgenase inhibition assay
The enzyme solution described above was diluted with the resuspension buffer above mentioned to prepare an assay solution so as to include about 2 mU/ml of 12-lipoxygenase. […] The resultant mixture was incubated at 37° C. for 5 minutes. Subsequently, 3 μl of a 2.5 mM arachidonic acid solution in ethanol was added to incubate with for another 5 minutes at 37° C., then the reaction was ceased by the addition of 600 μl of methanol. After being centrifuged at 10,000×g for 5 minutes, 12-hydroxyeicosatetraenoic acid recovered in the supernatant was separated with a reverse phase high-performance liquid chromatography equipped with a […] the activity of 12 lipoxygenase.
The enzyme solution was prepared according to the same manner as in Test Example 1.
It was prepared according to the same procedure as in Test Example 1.
Measurement was performed according to the same procedure as in Test Example 1.
The measurement was performed according to the same procedure as in Test Example 1.

5-lipoxygenase = target: T2, 5-lipoxygenase (Rattus norvegicus, UniProt P12527); test: 5-lipoxygenase inhibition assay (rat basophilic leukemia cell RBL-1 enzyme solution); assay type: biochemical; settings: Table 3; read-out: IC50 values of 5-lipoxygenase (mole)
T2 construct: Cultured cells were collected and washed twice; host or cells: RBL-1 rat basophilic leukemia cells (sonicate, 10,000 x g supernatant)
T2 sequence (P12527 1-673): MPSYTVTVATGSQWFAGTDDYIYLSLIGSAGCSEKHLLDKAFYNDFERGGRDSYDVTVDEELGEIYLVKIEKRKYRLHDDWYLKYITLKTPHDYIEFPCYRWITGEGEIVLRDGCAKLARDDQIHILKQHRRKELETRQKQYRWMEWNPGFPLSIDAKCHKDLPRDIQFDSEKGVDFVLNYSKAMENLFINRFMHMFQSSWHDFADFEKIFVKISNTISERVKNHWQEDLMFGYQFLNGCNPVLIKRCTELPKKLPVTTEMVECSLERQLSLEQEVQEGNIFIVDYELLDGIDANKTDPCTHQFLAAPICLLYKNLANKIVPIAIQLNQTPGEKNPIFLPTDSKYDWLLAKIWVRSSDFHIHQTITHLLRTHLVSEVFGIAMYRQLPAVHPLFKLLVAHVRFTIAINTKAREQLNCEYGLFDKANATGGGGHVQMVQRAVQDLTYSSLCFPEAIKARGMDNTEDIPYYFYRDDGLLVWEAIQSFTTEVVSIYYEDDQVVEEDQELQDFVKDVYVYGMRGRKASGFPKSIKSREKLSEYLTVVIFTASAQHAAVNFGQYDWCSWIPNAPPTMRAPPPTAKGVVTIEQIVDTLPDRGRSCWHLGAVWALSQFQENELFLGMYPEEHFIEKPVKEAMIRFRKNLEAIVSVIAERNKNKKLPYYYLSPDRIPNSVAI
Method: The test was carried out to examine the selectivity toward 12-lipoxgenase of the compounds of the first embodiment in the present invention.
i) Preparation of 5-lipoxgenase enzyme solution
Rat basophilic leukemia cells (RBL-1, ATCC CRL1378) were cultured in Dulbecco modified Eagle's medium containing 10% new-born bovine serum.
Cultured cells were collected and washed twice with a 50 mM Tris-buffered saline (containing 154 mM sodium chloride, pH: 7.4, hereinafter described as TBS). The cell suspension (4×10^7 cells/ml) was then sonicated and centrifuged at 10,000×g for 10 minutes.
The resultant supernatant was used to prepare an assay solution.
i) Procedure for 5-lipoxgenase inhibition assay
To an aliquot (15 μl) of the enzyme solution (40 mU/ml equivalent) was added 185 μl of TBS, 50 μl of a 2 mM adenosine triphosphate in TBS, 50 μl of a 12 mM calcium chloride in TBS, 1 μl of a 3 mM indomethacin in ethanol solution, 1 μl of an aqueous 300 mM reduced glutathione solution, and 3 μl of varied concentrated test compounds solution in ethanol. The resultant mixture was incubated at 37° C. for 5 minutes. Subsequently, 3 μl of a 2.5 mM arachidonic acid solution in ethanol was added to incubate the mixture for 2 minutes at 37° C. The reaction was ceased by the addition of 600 μl of methanol After being centrifuged at 10,000×g for 5 minutes, 5-hydroxyeicosatetraenoic acid recovered in the supernatant was separated with a reverse phase high-performance liquid chromatography equipped with a C-18 column and measured the absorption of diene at 234 nm to quantify the activity of the enzyme. […]
The enzyme activities of the compounds of the present invention prepared according to the same procedure as in Examples 54-58 to be described later and baicalein as sample substances at varied concentrations were measured according to the above-mentioned method, and mole concentrations showing 50% 12-lipoxgenase and 5-lipoxgenase inhibition ratios (hereinafter may be described as IC50 values) were obtained from the measured values of the sample substances.

12-lipoxygenase [4] = settings: background; cited from earlier work
[5] = Table 3, read-out: IC50 values of 12-lipoxygenase (mole)
[6] = Table 12, deacylated compounds, read-out: 12-Lipoxygenase inhibitory effect of deacylated compounds (IC50 values)

SMILES | IC50 (12-lipoxygenase [3]; [5]) [nM] | IC50 (5-lipoxygenase) [nM] | further results
CC(=O)Oc1ccc(C=C(C#N)c2ccc(Cl)cc2)cc1OC(C)=O [Formula 34b] |  |  | formation of deacylated compound (Formula 32b) [1]: no deacylated compound (Formula 32b) was formed; metabolised at 0.5 h, 10 µM [2]: 70.9%; metabolised at 1 h, 10 µM [2]: 82.8%
CCC(=O)Oc1ccc(C=C(C#N)c2ccc(Cl)cc2)cc1OC(=O)CC [Formula 35b] |  |  | formation of deacylated compound (Formula 32b) [1]: no deacylated compound (Formula 32b) was formed; metabolised at 0.5 h, 10 µM [2]: 56.5%; metabolised at 1 h, 10 µM [2]: 64.6%
N#CC(=Cc1ccc(O)c(O)c1)c1ccc(C#N)cc1 [Ex. 16] | 28 | 100 | 
O=c1cc(-c2ccccc2)oc2cc(O)c(O)c(O)c12 [Baicalein, baicalein] |  |  | 12-lipoxygenase inhibitory effect (literature, in words) (12-lipoxygenase [4]): having an inhibitory effect to 12-lipoxygenase; also recorded: relatively high 12-lipoxgenaseinhibitory activities and a relatively high selectivity
N#CC(=Cc1ccc(O)c(O)c1)c1cc(Br)cs1 [Ex. 13, α-(3,4-dihydroxybenzylidene)-4-bromothiophene-2-acetonitrile] | 3 | 36 | IC50 (12-lipoxygenase [3]; [6]): 3 nM
N#CC(=Cc1ccc(O)c(O)c1)c1ccc([N+](=O)[O-])cc1 [Ex. 17, α-cyano-4-nitro-3',4'-dihydroxystilbene] | 8.8 | 130 | IC50 (12-lipoxygenase [3]; [6]): 8.8 nM
N#CC(=Cc1cc(O)c(O)c(O)c1)c1ccc(Cl)cc1 [Ex. 15, α-cyano-4-chloro-3',4',5'-trihydroxystilbene] | 14 | 56 | 
N#CC(=Cc1cccc(Cl)c1)c1ccc(O)c(O)c1 [Ex. 22, α-cyano-3'-chloro-3,4-dihydroxystilbene] | 5.1 | 34 | IC50 (12-lipoxygenase [3]; [6]): 5.1 nM
Cc1ccc(C=C(C#N)c2ccc(O)c(O)c2)s1 [Ex. 27, α-(5-methylthiophen-2-ylmethylidene)-3,4-dihydroxybenzeneacetonitrile] | 7.7 | 66 | 
Cc1cccc(C=C(C#N)c2ccc(O)c(O)c2)c1 [Bz. 25, α-cyano-3'-methyl-3,4-dihydroxystilbene] | 7 | 44 | 
CCc1ccc(C=C(C#N)c2ccc(O)c(O)c2)cc1 [Ex. 26, α-cyano-4'-ethyl-3,4-dihydroxystilbene] | 4.2 | 32 | 

— patent US5589506A, “Stilbene derivative and stilbene analog derivative, and use thereof” (Morinaga Milk Industry Co., Ltd., priority 1993, dated 1996)
